# Measurements: patent US10500245B2, “Compositions for preventing and/or treating pathological conditions associated with alpha-glucosidase” (UNIVERSITE DE LA ROCHELLE, priority 2014, dated 2019)
# Where a SMILES comes first, the peptide text is derived from it. Where no end group is shown, it is not given here.
# Target: recombinant alpha-glucosidase from Saccharomyces cerevisiae, which is a maltase (Saccharomyces cerevisiae, UniProt P53341)
# Experiment: biochemical
# Details: Table 1; enzyme 0.2 U/mL, p-NPG 2.5 mM, pH 6.8, 37° C.; read-out: Inhibitory activity on α-glucosidase (IC50)
# Experimental: The synthetic peptides were supplied by GENOSPHERE Biotechnologies.
# The alpha-glucosidase used is the recombinant alpha-glucosidase from Saccharomyces cerevisiae, which is a maltase.
# The samples were solubilized beforehand in deionized water containing 10% of DMSO (dimethyl sulphoxide).
# After incubation at 37° C. for 20 minutes, 20 μL of the substrate p-NPG (p-nitrophenyl glucopyranoside) at 2.5 mM (prepared in the same buffer as mentioned above) was added to the mixture in order to start the reaction.
# The reaction medium was incubated for 30 minutes at 37° C. and then the reaction was stopped by adding 80 μL of a solution of sodium carbonate (Na2CO3) at 0.3M.
# The quantity of product formed (p-nitrophenyl (p-NP) of yellow colour) was measured by spectrophotometry (absorbance at 410 nm, VersaMax™, Microplate Reader).
# The test was carried out in a 96-well microplate.
# All the inhibition tests were carried out in triplicate.
# The percentage inhibition was calculated from the following equation: […]
# OD sample assay corresponds to the optical density obtained for the mixture “sample+enzyme+substrate”.
# OD assay blank corresponds to the optical density obtained for the mixture “sample+buffer”.
# OD control assay corresponds to the optical density obtained for the mixture “buffer+enzyme+substrate”.
# OD control blank corresponds to the optical density obtained for the buffer.
# recombinant alpha-glucosidase from Saccharomyces cerevisiae, which is a maltase, sequence (P53341 whole entry): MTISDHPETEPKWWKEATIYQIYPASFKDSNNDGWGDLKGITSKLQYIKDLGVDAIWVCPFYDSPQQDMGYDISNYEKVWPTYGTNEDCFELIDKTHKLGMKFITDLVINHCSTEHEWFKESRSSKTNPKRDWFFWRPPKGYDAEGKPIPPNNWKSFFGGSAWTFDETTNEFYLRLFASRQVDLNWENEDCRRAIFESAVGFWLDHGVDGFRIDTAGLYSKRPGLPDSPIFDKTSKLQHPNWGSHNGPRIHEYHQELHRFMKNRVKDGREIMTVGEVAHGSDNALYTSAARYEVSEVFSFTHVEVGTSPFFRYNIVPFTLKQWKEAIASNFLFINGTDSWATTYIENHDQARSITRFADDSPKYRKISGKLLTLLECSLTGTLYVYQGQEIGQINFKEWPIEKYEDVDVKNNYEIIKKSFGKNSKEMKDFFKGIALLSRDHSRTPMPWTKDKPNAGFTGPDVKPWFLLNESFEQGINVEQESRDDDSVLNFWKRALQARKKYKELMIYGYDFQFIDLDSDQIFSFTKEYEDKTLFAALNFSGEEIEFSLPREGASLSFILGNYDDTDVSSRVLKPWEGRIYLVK
row,Compound,IC50
1,CC(C)C[C@H](NC(=O)[C@@H]1CCCN1C(=O)CN)C(=O)O [GPL] (H-Gly-Pro-Leu-OH; N-terminus and C-terminus assumed),4.82 ± 0.15 mM
2,NCCCC[C@H](N)C(=O)N[C@@H](Cc1ccc(O)cc1)C(=O)O [KY],10.96 ± 0.1 mM

# Same assay, conditions: relative to the AP and VAP peptides
row,Compound,inhibition of alpha-glucosidase in words
1,CC(C)[C@H](N)C(=O)N[C@@H](Cc1ccc(O)cc1)C(=O)O [VY] (H-Val-Tyr-OH; N-terminus and C-terminus assumed),weak inhibitors
2,CC(C)C[C@H](NC(=O)[C@@H]1CCCN1C(=O)CN)C(=O)O [GPL] (H-Gly-Pro-Leu-OH; N-terminus and C-terminus assumed),weak inhibitors
3,NCCCC[C@H](N)C(=O)N[C@@H](Cc1ccc(O)cc1)C(=O)O [KY],weak inhibitors

# Target: T1, recombinant alpha-glucosidase from S. cerevisiae (maltase) (Saccharomyces cerevisiae, UniProt P53341)
# T1 construct: purchased Sigma G0660-750UN
# T1 sequence (P53341 whole entry): as above
# Experiment: biochemical
# Type: biochemical
# Details: Inhibitory activity on α-glucosidase (IC50) in mg/ml, Table 2
# Experimental: 20 μl of α-glucosidase in 0.1M potassium phosphate buffer (pH 6.8) at 1.6 U/ml is mixed with 8 μl of the peptide sample or of the reference inhibitor at different concentrations.
# The samples are solubilized beforehand in milliQ water containing 10% DMSO (available from Sigma under reference 472301).
# After preincubation at 37° C. for 15 min, 20 μl of the substrate p-NPG at 20 mM in 0.1M potassium phosphate buffer (pH 6.8) is added to the mixture in order to start the reaction.
# The reaction medium is incubated for 30 min at 37° C. and then the reaction is stopped by adding 80 μl of a 1M solution of sodium carbonate (Na2CO3).
# The quantity of product formed (p-nitrophenyl) is measured by reading the absorbance at 410 nm using the Fluostar Omega spectrophotometer (BMG Labtech, Germany).
# (§1) All the inhibition tests are carried out in triplicate.
# The enzyme used is recombinant alpha-glucosidase from S. cerevisiae (it is a maltase available from Sigma, under reference G0660-750UN).
# The substrate used is 4-nitrophenyl α-D-glucopyranoside (p-NPG) (available from Sigma under reference N1377).
row,Compound,IC50
1,VGVAPG [VGVAPG],4.58 mM
2,AVPYQR [AVPYQR],3.19 mM
3,SAPLRVY [SAPLRVY],1.76 mM
4,CC(C)[C@H](N)C(=O)N[C@@H](C)C(=O)N1CCC[C@H]1C(=O)NCC(=O)O [VAPG] (H-VAPG-OH; N-terminus and C-terminus assumed),4.05 mM
5,VAPFPEV [VAPFPEV],2.68 mM

# Same assay, conditions: Inhibitory activity on α-glucosidase (IC50) in mmol/l, Table 2; enzyme 1.6 U/ml, p-NPG 20 mM, pH 6.8, 37° C.
row,Compound,IC50
1,VGVAPG [VGVAPG],4.59 ± 0.06 mM
2,SAPLRVY [SAPLRVY],1.76 ± 0.18 mM

# Same assay, conditions: Table 2; enzyme 1.6 U/ml, p-NPG 20 mM, pH 6.8, 37° C.; read-out: Inhibitory activity on α-glucosidase (IC50)
row,Compound,IC50
1,CC(C)C[C@H](NC(=O)[C@@H]1CCCN1C(=O)CN)C(=O)O [GPL] (H-Gly-Pro-Leu-OH; N-terminus and C-terminus assumed),4.82 ± 0.15 mM
2,NCCCC[C@H](N)C(=O)N[C@@H](Cc1ccc(O)cc1)C(=O)O [KY],10.96 ± 0.1 mM

# Same assay, conditions: Table 2; read-out: Inhibitory activity on α-glucosidase (IC50) in mg/ml (converted)
row,Compound,IC50
1,CC(C)[C@H](N)C(=O)N[C@@H](Cc1ccc(O)cc1)C(=O)O [VY] (H-Val-Tyr-OH; N-terminus and C-terminus assumed),2.7 mM
2,CC(C)C[C@H](NC(=O)[C@@H]1CCCN1C(=O)CN)C(=O)O [GPL] (H-Gly-Pro-Leu-OH; N-terminus and C-terminus assumed),4.81 mM
3,NCCCC[C@H](N)C(=O)N[C@@H](Cc1ccc(O)cc1)C(=O)O [KY],10.9 mM

# Target: T2, DPP-IV from pig kidney (Sus scrofa, UniProt P22411)
# T2 construct: The enzyme used is DPP-IV from pig kidney; purchased Sigma D7052; host or cells: pig kidney
# T2 sequence (P22411 whole entry): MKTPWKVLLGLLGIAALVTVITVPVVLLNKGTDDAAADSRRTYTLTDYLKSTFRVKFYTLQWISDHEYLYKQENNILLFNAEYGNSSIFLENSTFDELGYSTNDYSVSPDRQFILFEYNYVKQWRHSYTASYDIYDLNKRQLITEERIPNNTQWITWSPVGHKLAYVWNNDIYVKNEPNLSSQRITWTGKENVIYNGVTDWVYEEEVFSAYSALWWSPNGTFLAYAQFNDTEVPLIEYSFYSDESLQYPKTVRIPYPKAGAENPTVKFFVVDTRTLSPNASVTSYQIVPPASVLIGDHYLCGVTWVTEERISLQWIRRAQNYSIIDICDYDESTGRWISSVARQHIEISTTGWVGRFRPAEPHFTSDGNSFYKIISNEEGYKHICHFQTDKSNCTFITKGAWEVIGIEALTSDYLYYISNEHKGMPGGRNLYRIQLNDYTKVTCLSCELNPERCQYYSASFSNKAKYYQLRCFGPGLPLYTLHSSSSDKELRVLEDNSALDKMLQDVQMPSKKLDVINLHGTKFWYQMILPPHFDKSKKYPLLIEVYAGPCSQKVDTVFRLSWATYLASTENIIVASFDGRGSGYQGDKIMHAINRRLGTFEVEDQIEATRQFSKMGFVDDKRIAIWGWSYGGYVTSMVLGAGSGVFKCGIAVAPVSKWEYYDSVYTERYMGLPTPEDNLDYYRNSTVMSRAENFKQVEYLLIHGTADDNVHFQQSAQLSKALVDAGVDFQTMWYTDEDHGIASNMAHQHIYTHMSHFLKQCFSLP
# Experiment: In-vitro determination of the inhibition of DPP-IV by synthetic peptides (Example 14)
# Type: biochemical
# Details: Table 13; substrate Gly-L-Pro-p-nitroanilide, pH 8.0, 37° C.
# Experimental: The inhibitory activity of synthetic peptides can be measured in vitro according to the following protocol:
# 25 μl of the substrate Gly-L-Pro-p-nitroanilide in 0.1 M Tris-HCL buffer (pH 8.0) at 1.6 mM is mixed with 25 μl of the peptide sample or of reference inhibitor at different concentrations. The samples are solubilized beforehand in Tris HCL buffer (pH8.0).
# After preincubation at 37° C. for 10 min, 50 μl of the DPP-IV enzyme at a concentration of 0.01 U/ml in 0.1 M Tris-HCL buffer (pH 8.0) is added to the mixture in order to start the reaction. The reaction medium is incubated for 60 min at 37° C. and then the reaction is stopped by adding 100 μl of 1M sodium acetate buffer (pH4).
# The quantity of product formed (p-nitroanilide) is measured by reading the absorbance at 385 nm using the Fluostar Omega spectrophotometer (BMG Labtech, Germany).
# as §1
# The substrate used is Gly-L-Pro-p-nitroanilide hydrochloride (available from Sigma under reference G0513).
# The enzyme used is DPP-IV from pig kidney (available from Sigma under reference D7052).
# The reference inhibitor is Diprotin A, corresponding to the Ile-Pro-Ile tripeptide (available from Sigma under reference 19759).
row,Compound,inhibitory activity of DPP-IV (IC50) in mmol/l
1,CC(C)[C@H](N)C(=O)N[C@@H](Cc1ccc(O)cc1)C(=O)O [VY] (H-Val-Tyr-OH; N-terminus and C-terminus assumed),No inhibition
2,AVIPIPT,No inhibition
3,NCCCC[C@H](N)C(=O)N[C@@H](Cc1ccc(O)cc1)C(=O)O [KY],No inhibition

# Same assay, conditions: Table 13; substrate Gly-L-Pro-p-nitroanilide, pH 8.0, 37° C.; read-out: inhibitory activity of DPP-IV (IC50)
row,Compound,IC50
1,VGVAPG [VGVAPG],10.7 ± 0.769 mM
2,AVPYQR [AVPYQR],5.7 ± 0.08 mM
3,SAPLRVY [SAPLRVY],1.06 ± 0.031 mM
4,CC(C)[C@H](N)C(=O)N[C@@H](C)C(=O)N1CCC[C@H]1C(=O)NCC(=O)O [VAPG] (H-VAPG-OH; N-terminus and C-terminus assumed),2.27 ± 0.131 mM
5,CC(C)C[C@H](NC(=O)[C@@H]1CCCN1C(=O)CN)C(=O)O [GPL] (H-Gly-Pro-Leu-OH; N-terminus and C-terminus assumed),1.85 ± 0.298 mM
6,VAPFPEV [VAPFPEV],1.184 ± 0.008 mM
